Measured values: article PMC9782245, “Synthesis and Structural Optimization of 2,7,9-Trisubstituted purin-8-ones as FLT3-ITD Inhibitors” (International Journal of Molecular Sciences, 2022)
Values joined by “and” are separate entries in the source; they are usually repeats but may differ in a detail not shown here. Equal values may be shown once. Read-outs that look alike come from different tables or passages of the source.

Tests used:
FLT3-ITD = target: T1, FLT3-ITD (Homo sapiens, UniProt P36888, ITD); experiment: Kinase inhibition assay FLT3-ITD; format: biochemical
T1 sequence (P36888 27-993): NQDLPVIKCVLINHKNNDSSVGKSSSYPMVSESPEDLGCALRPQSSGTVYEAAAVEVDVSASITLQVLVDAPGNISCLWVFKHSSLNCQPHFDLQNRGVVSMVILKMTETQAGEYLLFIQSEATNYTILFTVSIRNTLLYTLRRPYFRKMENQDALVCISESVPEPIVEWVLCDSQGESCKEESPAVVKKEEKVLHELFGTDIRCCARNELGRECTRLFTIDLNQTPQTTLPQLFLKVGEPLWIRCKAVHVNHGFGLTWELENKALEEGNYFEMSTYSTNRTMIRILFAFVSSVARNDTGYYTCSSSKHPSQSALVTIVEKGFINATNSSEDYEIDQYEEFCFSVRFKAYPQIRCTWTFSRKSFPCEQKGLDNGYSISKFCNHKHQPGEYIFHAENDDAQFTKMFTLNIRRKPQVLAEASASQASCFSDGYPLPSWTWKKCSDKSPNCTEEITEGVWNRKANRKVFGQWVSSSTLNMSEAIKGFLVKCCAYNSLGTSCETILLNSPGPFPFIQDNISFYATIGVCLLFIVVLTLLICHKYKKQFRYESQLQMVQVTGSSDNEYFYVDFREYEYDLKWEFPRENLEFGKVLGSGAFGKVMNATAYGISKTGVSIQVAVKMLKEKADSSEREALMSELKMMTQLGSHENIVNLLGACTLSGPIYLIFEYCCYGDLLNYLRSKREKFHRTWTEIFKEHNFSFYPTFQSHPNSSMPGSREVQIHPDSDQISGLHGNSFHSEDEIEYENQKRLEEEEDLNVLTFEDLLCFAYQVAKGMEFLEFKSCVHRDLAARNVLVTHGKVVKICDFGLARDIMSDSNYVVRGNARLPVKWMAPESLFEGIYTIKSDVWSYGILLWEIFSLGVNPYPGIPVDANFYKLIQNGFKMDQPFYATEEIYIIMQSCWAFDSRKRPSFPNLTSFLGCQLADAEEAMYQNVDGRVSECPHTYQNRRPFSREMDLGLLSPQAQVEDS
Description: (§1) Newly prepared compounds 12–15 were assayed for inhibition of FLT3-ITD kinase as well as CDK4 and CDK2, known off-targets of structurally related compounds. We observed that CDK4 was sensitive to nearly all compounds with IC50 values in mid-nanomolar values.
(§2) CDK/cyclin complexes and FLT3 kinases were assayed as previously described. Protein kinase selectivity was evaluated at a single concentration (1 µM) by screening against 30 enzymes at Eurofins Discovery (France).

CDK2/E = CDK2/E (Homo sapiens, UniProt P24941); experiment: Kinase inhibition assay CDK2/E; format: biochemical
Description: as §1, §2

K562 cells = experiment: Resazurin-based viability assay, K562; format: cell-based; conditions: Homo sapiens, 72 h, at least duplicate experiments
Excerpt: (§3) In parallel to kinase assays, we measured the effect of compounds on the viability of cancer cell lines MV4-11 and K562 using a resazurin-based assay. MV4-11 is an AML cell line dependent on a constitutively activated FLT3-ITD kinase with high sensitivity to FLT3 inhibition, K562 cells (chronic myelogenous leukemia) are independent on FLT3.
(§4) Human cell lines were obtained from the European Collection of Authenticated Cell Cultures (K562) and Cell lines service (MV4-11) and were cultivated according to the provider’s instructions. Briefly, cells were maintained in RPMI-1640 (MV4-11) or DMEM (K562) supplemented with 10% fetal bovine serum, penicillin (100 U/mL), and streptomycin (0.1 mg/mL) at 37 °C in 5% CO2. For the viability assays, cells were treated in triplicate with six different doses of each compound for 72 h. After treatments, the resazurin (Sigma Aldrich, St. Louis, MO, USA) solution was added for 4 h, and the fluorescence of resorufin corresponding to live cells was measured at 544/590 nm (excitation/emission) using a Fluoroskan Ascent microplate reader (Labsystems). The GI50 value, the drug concentration lethal to 50% of the cells, was calculated from the dose-response curves that resulted from the assays.

CDK4/D1 = CDK4/D1 (Homo sapiens, UniProt P11802); experiment: Kinase inhibition assay CDK4/D1; format: biochemical
Chain of CDK4/D1 (P11802 whole entry): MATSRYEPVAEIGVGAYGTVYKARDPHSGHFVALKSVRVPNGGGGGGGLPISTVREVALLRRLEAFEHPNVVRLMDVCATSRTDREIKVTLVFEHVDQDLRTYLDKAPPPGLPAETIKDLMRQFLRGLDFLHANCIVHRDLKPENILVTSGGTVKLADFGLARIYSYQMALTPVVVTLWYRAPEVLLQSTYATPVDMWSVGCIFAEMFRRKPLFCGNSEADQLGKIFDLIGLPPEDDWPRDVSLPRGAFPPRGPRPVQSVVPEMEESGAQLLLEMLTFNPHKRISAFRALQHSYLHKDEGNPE
Chain of CDK4/D1 (P24385 whole entry partner): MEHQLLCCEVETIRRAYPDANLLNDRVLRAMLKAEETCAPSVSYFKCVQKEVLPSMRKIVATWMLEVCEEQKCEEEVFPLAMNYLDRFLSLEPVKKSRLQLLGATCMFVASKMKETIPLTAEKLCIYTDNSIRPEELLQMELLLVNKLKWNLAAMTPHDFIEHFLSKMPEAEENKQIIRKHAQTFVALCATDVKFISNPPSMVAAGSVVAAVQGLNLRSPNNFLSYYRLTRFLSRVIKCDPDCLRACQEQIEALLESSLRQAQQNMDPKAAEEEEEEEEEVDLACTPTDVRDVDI
Description: as §1, §2

MV4-11 cells = experiment: Resazurin-based viability assay, MV4-11; format: cell-based, Human; conditions: for GI50: Homo sapiens, MV4-11, 72 h, resazurin, at least duplicate experiments
Excerpt: as §3, §4

[1] = at least duplicate experiments, read-out: IC50 FLT3-ITD
[2] = at least duplicate experiments, read-out: IC50 CDK2/E
[3] = at least duplicate experiments, read-out: IC50 CDK4/D1

Compound | IC50 (FLT3-ITD; [1]) [nM] | IC50 (FLT3-ITD; read-out: IC50 FLT3) [nM] | IC50 (CDK2/E; [2]) | IC50 (CDK2/E; read-out: IC50 CDK2) [nM] | GI50 (K562 cells) [nM] | IC50 (CDK4/D1; [3]) | IC50 (CDK4/D1; read-out: IC50 CDK4) [nM] | GI50 (MV4-11 cells) [nM] | selectivity index (ratio for GI50's of K562 and MV4-11 cells) (MV4-11 cells; K562 / MV4-11) | melting point [°C]
Cn1c(=O)n(C2CCCCCCC2)c2nc(Nc3ccc(N4CCNCC4)cc3)ncc21 [14i] | 12 | ≤ 300 | 90 nM | ≤ 300 | 2460 | 25 nM | ≤ 300 | 90 | > 20 | 
COc1ccc(Cn2c(=O)n(C)c3cnc(Nc4ccc(N5CCNCC5)cc4)nc32)c(OC)c1 [14r] | 456 |  | > 1000 nM and 20000 nM |  | 11900 | > 20000 nM |  | 900 |  | 102 to 104
Cn1c(=O)n(C2CCCCCC2)c2nc(Nc3ccc(N4CCNCC4)cc3)ncc21 [14h] | 34 | ≤ 300 | 60 nM | ≤ 300 | 1480 | 22 nM | ≤ 300 | 100 |  | 256 to 258
Cn1c(=O)n([C@H]2CC[C@H](C)CC2)c2nc(Nc3ccc(N4CCNCC4)cc3)ncc21 [14g] | 68 | ≤ 300 | 180 nM | ≤ 300 | 1260 | 27 nM | ≤ 300 | 110 |  | 114 to 116
O=c1[nH]c2cnc(Nc3ccc(N4CCNCC4)cc3)nc2n1C1CCCC1 [13a] | 2370 |  | 24500 nM |  | 1630 | 2880 nM |  | 680 |  | 200 to 202
CC(C)n1c(=O)n(C2CCCCC2)c2nc(Nc3ccc(N4CCNCC4)cc3)ncc21 [15b] | 68 |  | 10300 nM |  | 1510 | 2120 nM |  | 130 |  | 132 to 134
Cc1ccc(-n2c(=O)n(C)c3cnc(Nc4ccc(N5CCNCC5)cc4)nc32)cc1 [14o] | 160 |  | > 1000 nM and 2400 nM |  | 7620 | 169 nM |  | 460 |  | 126 to 128
Cn1c(=O)n(C2CCC2)c2nc(Nc3ccc(N4CCNCC4)cc3)ncc21 [14c] | 56 | 50 to 60 | 3900 nM |  | 1040 | 524 nM | 400 to 520 | 110 |  | 
FC(F)(F)c1nc2cnc(Nc3ccc(N4CCNCC4)cc3)nc2n1C1CCCC1 [12a] | 224 |  | 1630 nM |  | 1110 | 51 nM |  | 220 |  | 232 to 234
FC(F)(F)c1nc2cnc(Nc3ccc(N4CCNCC4)cc3)nc2n1C1CCCCCC1 [12d] | 88 |  | 150 nM |  | 2450 | 22 nM |  | 250 |  | 216 to 218
Cn1c(=O)n(-c2ccccc2)c2nc(Nc3ccc(N4CCNCC4)cc3)ncc21 [14m] | 54 | 50 to 60 | 3740 nM |  | 3030 | 400 nM | 400 to 520 | 340 |  | 120 to 122
Cn1c(=O)n(C2CC2)c2nc(Nc3ccc(N4CCNCC4)cc3)ncc21 [14b] | 642 |  | > 20000 nM |  | 45300 | > 1000 nM and 8020 nM |  | 710 |  | 156 to 158
CC(C)n1c(=O)n(C2CCCCCC2)c2nc(Nc3ccc(N4CCNCC4)cc3)ncc21 [15d] | 27 |  | 2320 nM |  | 1180 | 1100 nM |  | 100 |  | 
COc1ccc(-n2c(=O)n(C)c3cnc(Nc4ccc(N5CCNCC5)cc4)nc32)cc1 [14q] | 262 |  | > 1000 nM and 6180 nM |  | 1970 | 488 nM |  | 400 |  | 270 to 272
CC1CCC(n2c(=O)n(C(C)C)c3cnc(Nc4ccc(N5CCNCC5)cc4)nc32)CC1 (stereo not shown) [15c] | 40 |  | 4140 nM |  | 1450 | 1100 nM |  | 130 |  | 264 to 266
COc1ccccc1-n1c(=O)n(C)c2cnc(Nc3ccc(N4CCNCC4)cc3)nc21 [14p] | 306 |  | 1590 nM |  | 370 | 2720 nM |  | 310 |  | 185 to 187
CC1CCC(n2c(=O)[nH]c3cnc(Nc4ccc(N5CCNCC5)cc4)nc32)CC1 (stereo not shown) [13c] | 1050 |  | 2560 nM |  | 1900 | 451 nM |  | 700 |  | 
O=c1[nH]c2cnc(Nc3ccc(N4CCNCC4)cc3)nc2n1C1CCCCCC1 [13d] | 425 |  | 1000 nM |  | 1580 | 479 nM |  | 560 |  | 
O=c1[nH]c2cnc(Nc3ccc(N4CCNCC4)cc3)nc2n1C1CCCCC1 [13b] | 1590 |  | 3360 nM |  | 1780 | 782 nM |  | 690 |  | 
Cn1c(=O)n(C2CCOCC2)c2nc(Nc3ccc(N4CCNCC4)cc3)ncc21 [14k] | 450 |  | > 1000 nM and 9250 nM |  | 18200 | > 1000 nM and 2530 nM |  | 590 |  | 124 to 126
Cn1c(=O)n(-c2cccc3ccccc23)c2nc(Nc3ccc(N4CCNCC4)cc3)ncc21 [14s] | 850 |  | > 1000 nM and 9530 nM |  | 2530 | > 1000 nM and 6900 nM |  | 330 |  | 
